For 18 compounds, IC50 and Ki results are on record in ChEMBL document CHEMBL1909046, “DrugMatrix in vitro pharmacology data”.

Experiment [1] deals with T1, C-X-C chemokine receptor type 1 (Homo sapiens, UniProt P25024).
T1 sequence (P25024 whole entry): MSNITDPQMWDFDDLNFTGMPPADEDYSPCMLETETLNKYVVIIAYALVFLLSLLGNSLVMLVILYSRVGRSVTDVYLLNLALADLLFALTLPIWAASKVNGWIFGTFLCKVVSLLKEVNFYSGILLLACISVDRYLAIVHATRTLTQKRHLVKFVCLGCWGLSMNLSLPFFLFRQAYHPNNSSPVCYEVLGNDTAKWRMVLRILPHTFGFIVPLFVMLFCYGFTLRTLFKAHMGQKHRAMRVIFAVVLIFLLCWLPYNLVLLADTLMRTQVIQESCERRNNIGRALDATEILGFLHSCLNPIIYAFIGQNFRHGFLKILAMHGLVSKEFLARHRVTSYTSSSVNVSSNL

The target of the next experiment is T2, B2 bradykinin receptor (Homo sapiens, UniProt P30411). Also: in other assays of this panel Not Active means under 50% inhibition at 10 µM.
T2 sequence (P30411 whole entry): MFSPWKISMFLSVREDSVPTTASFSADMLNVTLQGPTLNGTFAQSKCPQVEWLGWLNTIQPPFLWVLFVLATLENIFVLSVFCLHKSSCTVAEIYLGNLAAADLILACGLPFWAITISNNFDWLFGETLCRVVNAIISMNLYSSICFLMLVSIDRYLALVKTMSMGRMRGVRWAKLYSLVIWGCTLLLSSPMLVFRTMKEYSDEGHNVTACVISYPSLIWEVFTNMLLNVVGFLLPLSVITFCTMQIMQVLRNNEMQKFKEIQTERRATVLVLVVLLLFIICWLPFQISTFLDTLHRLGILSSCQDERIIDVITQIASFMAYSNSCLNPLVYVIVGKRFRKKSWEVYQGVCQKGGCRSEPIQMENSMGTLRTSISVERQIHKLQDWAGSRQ
The format is cell membranes, Membrane. Conditions: chem-1.

The next experiment deals with D(3) dopamine receptor (Homo sapiens, UniProt P35462). Description: DRUGMATRIX: Dopamine D3 radioligand binding (ligand: [3H] Spiperone). In kind it is cell membranes, CHO, Membrane. The conditions noted are these: for Ki: read-out: Ki.
A further experiment addresses Insulin receptor (Rattus norvegicus, UniProt P15127). The format is cell membranes, Wistar, Liver, Membrane.
Experiment [2] deals with T3, Angiotensin-converting enzyme (Oryctolagus cuniculus, UniProt P12822).
T3 sequence (P12822 whole entry): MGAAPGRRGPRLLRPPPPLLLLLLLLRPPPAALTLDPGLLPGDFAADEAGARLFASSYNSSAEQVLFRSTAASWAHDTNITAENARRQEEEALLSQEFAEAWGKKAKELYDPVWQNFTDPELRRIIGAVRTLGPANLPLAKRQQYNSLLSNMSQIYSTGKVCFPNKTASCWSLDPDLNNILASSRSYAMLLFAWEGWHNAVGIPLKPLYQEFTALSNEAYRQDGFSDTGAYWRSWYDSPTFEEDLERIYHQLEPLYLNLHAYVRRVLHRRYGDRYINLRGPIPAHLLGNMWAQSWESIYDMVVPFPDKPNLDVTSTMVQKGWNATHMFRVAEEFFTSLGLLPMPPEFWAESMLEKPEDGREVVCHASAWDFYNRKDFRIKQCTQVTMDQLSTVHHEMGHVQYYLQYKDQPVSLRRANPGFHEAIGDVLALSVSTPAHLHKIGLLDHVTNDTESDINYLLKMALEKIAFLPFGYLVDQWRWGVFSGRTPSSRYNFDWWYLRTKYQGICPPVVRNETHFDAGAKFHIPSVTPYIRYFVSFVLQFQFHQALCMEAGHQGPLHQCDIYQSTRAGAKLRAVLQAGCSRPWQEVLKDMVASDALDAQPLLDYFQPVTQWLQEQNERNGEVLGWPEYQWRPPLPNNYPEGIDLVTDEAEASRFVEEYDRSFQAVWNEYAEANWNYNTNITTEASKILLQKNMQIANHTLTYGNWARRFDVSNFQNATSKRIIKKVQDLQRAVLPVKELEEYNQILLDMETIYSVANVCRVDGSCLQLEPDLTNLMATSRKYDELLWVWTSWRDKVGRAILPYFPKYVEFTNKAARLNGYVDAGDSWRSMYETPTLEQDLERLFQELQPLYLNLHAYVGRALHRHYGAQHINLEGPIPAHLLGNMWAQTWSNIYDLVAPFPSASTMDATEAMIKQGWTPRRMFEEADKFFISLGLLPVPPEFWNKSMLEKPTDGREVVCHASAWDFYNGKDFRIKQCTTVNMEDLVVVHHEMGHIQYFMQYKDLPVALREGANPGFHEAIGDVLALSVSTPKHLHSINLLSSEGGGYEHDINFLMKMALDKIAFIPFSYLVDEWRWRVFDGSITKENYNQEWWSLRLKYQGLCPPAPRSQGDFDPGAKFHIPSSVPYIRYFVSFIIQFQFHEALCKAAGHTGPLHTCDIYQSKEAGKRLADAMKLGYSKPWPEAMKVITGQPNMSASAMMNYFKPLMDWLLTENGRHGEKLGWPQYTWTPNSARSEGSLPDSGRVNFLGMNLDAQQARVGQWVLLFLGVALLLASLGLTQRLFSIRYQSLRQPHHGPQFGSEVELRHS
In kind it is tissue-based, Lung.

The target of experiment [3] is 5-hydroxytryptamine receptor 4 (Cavia porcellus, UniProt O70528). The format is cell membranes, Dunkin-Hartley, Striatum, Membrane. Also: in other assays of this panel Not Active means under 50% inhibition at 10 µM.
Experiment [4] concerns the target C-C chemokine receptor type 2 (Homo sapiens, UniProt P41597). In kind it is cell membranes, Membrane. The conditions noted are these: cho-k1. Also: in other assays of this panel Not Active means under 50% inhibition at 10 µM.

5-hydroxytryptamine receptor 4, sequence (O70528 whole entry): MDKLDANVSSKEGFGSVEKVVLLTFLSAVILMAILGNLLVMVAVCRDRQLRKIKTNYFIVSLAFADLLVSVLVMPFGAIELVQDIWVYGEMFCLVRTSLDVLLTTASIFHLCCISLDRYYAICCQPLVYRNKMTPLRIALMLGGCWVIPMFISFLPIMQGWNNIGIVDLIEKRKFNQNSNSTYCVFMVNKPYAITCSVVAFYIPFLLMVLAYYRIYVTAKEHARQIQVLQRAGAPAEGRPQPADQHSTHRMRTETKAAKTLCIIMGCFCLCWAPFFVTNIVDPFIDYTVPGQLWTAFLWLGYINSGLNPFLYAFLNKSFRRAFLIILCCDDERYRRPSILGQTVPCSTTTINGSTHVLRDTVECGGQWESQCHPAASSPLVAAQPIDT
D(3) dopamine receptor, sequence (P35462 whole entry): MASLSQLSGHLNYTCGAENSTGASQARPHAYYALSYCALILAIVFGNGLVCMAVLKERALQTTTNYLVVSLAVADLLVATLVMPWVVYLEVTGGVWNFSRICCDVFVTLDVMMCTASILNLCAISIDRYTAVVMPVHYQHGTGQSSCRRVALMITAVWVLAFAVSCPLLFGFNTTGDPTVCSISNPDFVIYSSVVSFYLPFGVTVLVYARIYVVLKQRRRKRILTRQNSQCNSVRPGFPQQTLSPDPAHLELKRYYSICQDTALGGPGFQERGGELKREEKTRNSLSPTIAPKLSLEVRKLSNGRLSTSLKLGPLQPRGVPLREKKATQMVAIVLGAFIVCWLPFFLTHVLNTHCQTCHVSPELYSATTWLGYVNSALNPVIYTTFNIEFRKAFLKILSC
Insulin receptor, sequence (P15127 27-759 limits assumed): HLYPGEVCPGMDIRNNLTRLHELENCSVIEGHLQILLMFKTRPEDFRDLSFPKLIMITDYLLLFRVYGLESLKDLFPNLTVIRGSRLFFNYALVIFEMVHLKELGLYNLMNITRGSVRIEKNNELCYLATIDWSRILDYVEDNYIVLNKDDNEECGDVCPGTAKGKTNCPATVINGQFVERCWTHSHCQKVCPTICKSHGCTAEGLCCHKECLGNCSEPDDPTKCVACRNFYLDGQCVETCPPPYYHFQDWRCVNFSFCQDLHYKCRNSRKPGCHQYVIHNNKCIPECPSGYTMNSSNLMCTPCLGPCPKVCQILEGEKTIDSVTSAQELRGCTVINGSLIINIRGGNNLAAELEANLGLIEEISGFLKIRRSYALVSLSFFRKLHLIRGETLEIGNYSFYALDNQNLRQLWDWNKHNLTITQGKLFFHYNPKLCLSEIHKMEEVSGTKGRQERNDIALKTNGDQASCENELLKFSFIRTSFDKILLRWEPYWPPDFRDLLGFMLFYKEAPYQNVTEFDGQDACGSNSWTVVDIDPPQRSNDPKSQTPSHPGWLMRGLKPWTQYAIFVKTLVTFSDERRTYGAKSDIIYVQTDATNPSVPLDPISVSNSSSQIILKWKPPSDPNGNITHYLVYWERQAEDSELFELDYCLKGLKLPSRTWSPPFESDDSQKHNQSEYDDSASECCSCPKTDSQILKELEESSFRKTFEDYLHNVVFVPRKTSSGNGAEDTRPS
Insulin receptor, sequence (P15127 764-1383 limits assumed): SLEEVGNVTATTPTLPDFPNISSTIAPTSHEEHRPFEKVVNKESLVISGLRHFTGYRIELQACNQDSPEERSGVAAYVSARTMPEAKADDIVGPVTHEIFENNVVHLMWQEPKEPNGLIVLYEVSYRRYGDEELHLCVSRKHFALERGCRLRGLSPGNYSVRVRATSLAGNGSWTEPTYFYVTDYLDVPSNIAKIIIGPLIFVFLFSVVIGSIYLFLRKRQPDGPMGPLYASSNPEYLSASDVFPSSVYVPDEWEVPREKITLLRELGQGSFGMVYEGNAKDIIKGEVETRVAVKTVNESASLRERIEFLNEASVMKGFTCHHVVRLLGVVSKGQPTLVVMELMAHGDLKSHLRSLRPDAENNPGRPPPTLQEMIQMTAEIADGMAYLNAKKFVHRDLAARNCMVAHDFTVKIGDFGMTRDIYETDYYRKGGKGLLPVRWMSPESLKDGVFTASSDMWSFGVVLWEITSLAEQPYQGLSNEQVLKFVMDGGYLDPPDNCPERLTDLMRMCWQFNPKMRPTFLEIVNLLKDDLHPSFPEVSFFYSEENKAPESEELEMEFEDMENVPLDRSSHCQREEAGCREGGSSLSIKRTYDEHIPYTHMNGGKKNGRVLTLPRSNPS
C-C chemokine receptor type 2, sequence (P41597 whole entry): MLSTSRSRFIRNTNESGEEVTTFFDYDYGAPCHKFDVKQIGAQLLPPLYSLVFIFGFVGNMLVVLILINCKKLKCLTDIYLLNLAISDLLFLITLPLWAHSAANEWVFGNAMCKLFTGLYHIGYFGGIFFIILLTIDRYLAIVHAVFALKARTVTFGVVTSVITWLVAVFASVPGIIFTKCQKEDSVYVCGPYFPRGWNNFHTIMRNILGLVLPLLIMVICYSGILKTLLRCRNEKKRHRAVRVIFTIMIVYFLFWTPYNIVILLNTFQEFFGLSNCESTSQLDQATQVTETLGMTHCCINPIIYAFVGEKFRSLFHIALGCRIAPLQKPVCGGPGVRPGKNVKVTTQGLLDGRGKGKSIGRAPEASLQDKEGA

The IC50 is the point on the concentration scale where inhibition reaches its midpoint. Regarding `CCCCC(=O)N(Cc1ccc(-c2ccccc2-c2nnn[nH]2)cc1)[C@H](C(=O)O)C(C)C`, the IC50 entry (in experiment [1]; at B2 bradykinin receptor; at D(3) dopamine receptor (cho); against Insulin receptor; in experiment [2]; in experiment [3]) was “Not Active” in each case.

`O=C(O)COc1ccc(C(=O)c2cccs2)c(Cl)c1Cl`: the IC50 entry (in experiment [1]; on B2 bradykinin receptor; in experiment [4]; at D(3) dopamine receptor (cho); on Insulin receptor; in experiment [2]) was “Not Active” throughout. In experiment [3], the concentration for half-maximal inhibition (IC50) result is “Not Active”.

Usually Ki stands for a measure of affinity in units of concentration, obtained from inhibition or displacement. With `CN1[C@@H]2CC[C@H]1C[C@@H](OC(c1ccccc1)c1ccccc1)C2` [BENZTROPINE], the IC50 entry in experiment [1] was “Not Active”; against B2 bradykinin receptor, “Not Active”; in experiment [4] it was “Not Active”; on D(3) dopamine receptor (read-out: IC50) it was 654 nM; on Insulin receptor, “Not Active”; in experiment [2], “Not Active”. Further, the IC50 entry in experiment [3] is “Not Active”. For the same compound, the inhibitory constant (Ki) on D(3) dopamine receptor was determined as 222 nM.

Take `C[C@@](Cc1ccc(O)c(O)c1)(NN)C(=O)O.O` [CARBIDOPA]: the IC50 result (in experiment [1]; at B2 bradykinin receptor; in experiment [4]; on D(3) dopamine receptor (cho); against Insulin receptor; in experiment [2]) was “Not Active” in each case. The concentration for half-maximal inhibition (IC50) result in experiment [3] is on record as “Not Active”.

As to `CN1CCN(C2=Nc3cc(Cl)ccc3Nc3ccccc32)CC1` [CLOZAPINE], the IC50 entry (in experiment [1]; against B2 bradykinin receptor; in experiment [4]; at Insulin receptor; in experiment [2]; in experiment [3]) was “Not Active” each time.

Turning to `CC(C)NC[C@@H](O)COc1cccc2ccccc12` [DEXPROPRANOLOL], the IC50 result (in experiment [1]; at B2 bradykinin receptor; in experiment [4]; at D(3) dopamine receptor (cho); on Insulin receptor; in experiment [2]) was “Not Active” throughout. Further, the IC50 result in experiment [3] is listed as “Not Active”.

For the compound `CC(C)NC[C@H](O)COc1cccc2ccccc12` [LEVOPROPRANOLOL], the concentration for half-maximal inhibition (IC50) result (in experiment [1]; against B2 bradykinin receptor; in experiment [4]; on D(3) dopamine receptor (cho); at Insulin receptor; in experiment [2]) was “Not Active” in each case. Besides, the IC50 entry in experiment [3] is “Not Active”.

As to `O=C(O)CCCCC1CCSS1` (stereo not drawn) [LIPOIC ACID, ALPHA], the half-inhibitory concentration (IC50) result (in experiment [1]; on B2 bradykinin receptor; in experiment [4]; at D(3) dopamine receptor (cho); against Insulin receptor; in experiment [2]) was “Not Active” each time. In addition, the IC50 entry in experiment [3] is “Not Active”.

With `CN(C)C(=O)C(CCN1CCC(O)(c2ccc(Cl)cc2)CC1)(c1ccccc1)c1ccccc1` [LOPERAMIDE], the IC50 entry is “Not Active” in experiment [1]; “Not Active” against B2 bradykinin receptor; “Not Active” in experiment [4]; 1340 nM at D(3) dopamine receptor (read-out: IC50); “Not Active” against Insulin receptor; “Not Active” in experiment [2]. Further, the half-inhibitory concentration (IC50) result in experiment [3] is recorded as “Not Active”. Also, the inhibitory constant (Ki) at D(3) dopamine receptor was determined as 454 nM.

With `Clc1ccc(COC(Cn2ccnc2)c2ccc(Cl)cc2Cl)c(Cl)c1` (configuration not stated) [MICONAZOLE], the half-inhibitory concentration (IC50) entry was “Not Active” in experiment [1]; “Not Active” on B2 bradykinin receptor; “Not Active” in experiment [4]; 3200 nM at D(3) dopamine receptor (read-out: IC50); “Not Active” at Insulin receptor; “Not Active” in experiment [2]. In addition, the 50% inhibitory concentration (IC50) result in experiment [3] is given as “Not Active”. Further, at D(3) dopamine receptor, the Ki was determined as 1090 nM.

Take `Oc1ccc2c3c1O[C@H]1[C@@H](O)CC[C@@]4(O)[C@@H](C2)N(CC2CCC2)CC[C@]314` [NALBUPHINE]: the half-inhibitory concentration (IC50) entry (in experiment [1]; at B2 bradykinin receptor; in experiment [4]; on D(3) dopamine receptor (cho); on Insulin receptor; in experiment [2]) was “Not Active” in each case. Also, in experiment [3], the IC50 entry is recorded as “Not Active”.

Regarding `C[C@]12C=CC(=O)C=C1CC[C@@H]1[C@@H]2C(=O)C[C@@]2(C)[C@H]1CC[C@]2(O)C(=O)CO` [PREDNISONE], the half-inhibitory concentration (IC50) result (in experiment [1]; against B2 bradykinin receptor; in experiment [4]; on D(3) dopamine receptor (cho); against Insulin receptor; in experiment [2]) was “Not Active” each time. Also, the concentration for half-maximal inhibition (IC50) entry in experiment [3] is on record as “Not Active”.

For the compound `OCCOCCN1CCN(C2=Nc3ccccc3Sc3ccccc32)CC1` [QUETIAPINE], the IC50 entry (in experiment [1]; against B2 bradykinin receptor; in experiment [4]; against Insulin receptor; in experiment [2]; in experiment [3]) was “Not Active” throughout.

On to `COC(=O)[C@H]1[C@H]2C[C@@H]3c4[nH]c5cc(OC)ccc5c4CCN3C[C@H]2C[C@@H](OC(=O)c2cc(OC)c(OC)c(OC)c2)[C@@H]1OC` [RESERPINE], for which the IC50 entry (in experiment [1]; at B2 bradykinin receptor; in experiment [4]; on D(3) dopamine receptor (cho); at Insulin receptor; in experiment [2]) was “Not Active” throughout. Further, in experiment [3], the IC50 entry was “Not Active”.

Consider `O=C(O)c1ccccc1O` [SALICYLIC ACID], for which the IC50 result (in experiment [1]; against B2 bradykinin receptor; in experiment [4]; at D(3) dopamine receptor (cho); against Insulin receptor; in experiment [2]) was “Not Active” throughout. The IC50 result in experiment [3] is listed as “Not Active”.

`C[S+]([O-])c1ccc(-c2nc(-c3ccncc3)c(-c3ccc(F)cc3)[nH]2)cc1` (configuration not stated) [SB-203580]: the IC50 entry (in experiment [1]; against B2 bradykinin receptor; in experiment [4]; at D(3) dopamine receptor (cho); against Insulin receptor; in experiment [2]) was “Not Active” in each case. Besides, in experiment [3] (read-out: IC50), the IC50 came to 10600 nM. The inhibition constant (Ki) in experiment [3] (read-out: Ki) was determined as 1760 nM.

As for `CC1CCC(NC(=O)N(CCCl)N=O)CC1` (configuration not stated) [SEMUSTINE], the IC50 entry (in experiment [1]; against B2 bradykinin receptor; in experiment [4]; on D(3) dopamine receptor (cho); against Insulin receptor; in experiment [2]) was “Not Active” throughout. Besides, the IC50 entry in experiment [3] was “Not Active”.

Regarding `O=C1C[C@@H]2OCC=C3CN4CC[C@]56c7ccccc7N1[C@H]5[C@H]2[C@H]3C[C@H]46` [STRYCHNINE], the 50% inhibitory concentration (IC50) result (in experiment [1]; at B2 bradykinin receptor; in experiment [4]; at D(3) dopamine receptor (cho); on Insulin receptor; in experiment [2]) was “Not Active” in each case. In addition, the IC50 entry in experiment [3] is given as “Not Active”.
